We go through 2 compounds from patent US20140011853A1, “SUBSTITUTED 3-(BIPHENYL-3-YL)-8,8-DIFLUORO-4-HYDROXY-1-AZASPIRO[4.5]DEC-3-EN-2-ONES FOR THERAPY” (BAYER INTELLECTUAL PROPERTY GMBH, priority 2011, published 2014).

Each structure is given as a SMILES string. “And” between values parts separate entries of the source, which are not always exact repeats. Equal values may be shown once.

One series deals with T1, human ACC1 (Homo sapiens, UniProt Q13085).
T1 construct: FLAG (C); made in house; host or cells: baculovirus-infected insect cells (Hi5)
In words: Human ACC1 enzyme assay (ADP-Glo). It is filed as biochemical. Particulars: ACC 1 IC50, individual measurements. On the technique in general: ADP-Glo turns the ADP formed in a reaction into a luminescent signal.

A further series concerns KM12. In words: Tumour cell proliferation, CellTiter-Glo, 96-hour incubation, KM12. It is filed as cell-based. Particulars: Homo sapiens, KM12, 96 h, read-out: KM12 IC50. The procedure, abridged:
(§1)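 Cells seeded at 2000-5000 cells/well, separate t=0 plate read after overnight at 37° C; compound-treated plates incubated 96 hours at 37° C, CellTiter-Glo luminescence. Growth inhibition (%) from t=96 minus t=0 luminescence, treated versus untreated control.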
Background: In ATP-based viability assays light output follows the ATP content of the culture.

The next series deals with PC3. In words: Tumour cell proliferation, CellTiter-Glo, 96-hour incubation, PC3. It is filed as cell-based. The note with it: Homo sapiens, PC-3, 96 h, read-out: PC3 IC50. A digest of the protocol: as §1
Another series has as its system H460. Put plainly: Tumour cell proliferation, CellTiter-Glo, 96-hour incubation, H460. It is filed as cell-based. Particulars: Homo sapiens, NCI-H460, 96 h, read-out: H460 IC50. A digest of the protocol:
as §1

A further series has as its system MCF7. Put plainly: Tumour cell proliferation, CellTiter-Glo, 96-hour incubation, MCF7. It is filed as cell-based. Particulars: Homo sapiens, MCF7, 96 h, read-out: MCF7 IC50. A digest of the protocol: as §1
The nature of series [1]: Octanol/water distribution coefficient (logP/D), isocratic HPLC method. Format: physicochemical. Particulars: pH 7.4.
A short description of series [2]: Plasma protein binding by equilibrium dialysis, mouse. Format: in vitro ADME. The note with it: read-out: fu (mouse). As to the method: The binding of test substances to plasma proteins is determined by equilibrium dialysis by means of the Ht-dialysis apparatus (96-well) made of Teflon and a semipermeable membrane (regenerated cellulose, MWCO 12-14K). This separates 150 μl each of a plasma side and a buffer side (50 mM phosphate buffer). The test substance is added in 2 concentrations (usually 3 and 0.3 μM) to the plasma side and binds to plasma proteins. The unbound fraction of the test substance passes through the membrane and is distributed on either side until equilibrium is established (after approx. 6-8 h at 37° C.). The substance concentration on the buffer side and the plasma side is determined by LC-MS analysis. For this, both sides are brought by dilution with buffer or plasma to the same matrix (10% plasma) and then precipitated with methanol. The free (unbound) fraction (fu) is calculated from the quotient of the buffer and plasma concentration. Stability tests and recovery tests are run concurrently as controls. In addition, the substance in buffer is dialysed against buffer, to check the nonspecific binding to apparatus and membrane and establishment of equilibrium. Because during incubation the osmotic pressure of the plasma proteins leads to dilution of the plasma (volume shift), this possible error is determined by weighing blank plasma samples and is included in the calculation of fu. Establishment of equilibrium and plasma stability should have a value not lower than 80% and the recovery should be at least 30%. A free fraction of <1% is regarded as high, between 1 and 10% as moderate and >10% as low plasma protein binding.

In another series the test system is Spodoptera frugiperda. Put plainly: Spodoptera frugiperda test (SPODFR spray treatment). Format: in vivo. The note with it: 500 g/ha, after 7 days.
A further series deals with Myzus persicae. Put plainly: Myzus test (MYZUPE spray treatment). Format: in vivo. The note with it: Myzus persicae, 144 h, read-out: effect (kill of aphids). The text has this:
Disks of Chinese cabbage (Brassica pekinensis) infested by all stages of the green peach aphid (Myzus persicae) are sprayed with an active compound formulation of the desired concentration.

Another series concerns the target human ACC2 (Homo sapiens, UniProt O00763). Put plainly: Human ACC2 enzyme assay (ADP-Glo). Particulars: ACC 2 IC50, individual measurements.
For a further series, the system named is Phaedon cochleariae. Put plainly: Phaedon test (PHAECO spray treatment). Particulars: 500 g/ha, after 7 days.
Series [3] addresses human serum albumin (HSA) (Homo sapiens, UniProt P02768). Put plainly: Protein binding to human serum albumin (HSA-Transil).

Chain of human ACC2 (O00763 27-2458 limits assumed): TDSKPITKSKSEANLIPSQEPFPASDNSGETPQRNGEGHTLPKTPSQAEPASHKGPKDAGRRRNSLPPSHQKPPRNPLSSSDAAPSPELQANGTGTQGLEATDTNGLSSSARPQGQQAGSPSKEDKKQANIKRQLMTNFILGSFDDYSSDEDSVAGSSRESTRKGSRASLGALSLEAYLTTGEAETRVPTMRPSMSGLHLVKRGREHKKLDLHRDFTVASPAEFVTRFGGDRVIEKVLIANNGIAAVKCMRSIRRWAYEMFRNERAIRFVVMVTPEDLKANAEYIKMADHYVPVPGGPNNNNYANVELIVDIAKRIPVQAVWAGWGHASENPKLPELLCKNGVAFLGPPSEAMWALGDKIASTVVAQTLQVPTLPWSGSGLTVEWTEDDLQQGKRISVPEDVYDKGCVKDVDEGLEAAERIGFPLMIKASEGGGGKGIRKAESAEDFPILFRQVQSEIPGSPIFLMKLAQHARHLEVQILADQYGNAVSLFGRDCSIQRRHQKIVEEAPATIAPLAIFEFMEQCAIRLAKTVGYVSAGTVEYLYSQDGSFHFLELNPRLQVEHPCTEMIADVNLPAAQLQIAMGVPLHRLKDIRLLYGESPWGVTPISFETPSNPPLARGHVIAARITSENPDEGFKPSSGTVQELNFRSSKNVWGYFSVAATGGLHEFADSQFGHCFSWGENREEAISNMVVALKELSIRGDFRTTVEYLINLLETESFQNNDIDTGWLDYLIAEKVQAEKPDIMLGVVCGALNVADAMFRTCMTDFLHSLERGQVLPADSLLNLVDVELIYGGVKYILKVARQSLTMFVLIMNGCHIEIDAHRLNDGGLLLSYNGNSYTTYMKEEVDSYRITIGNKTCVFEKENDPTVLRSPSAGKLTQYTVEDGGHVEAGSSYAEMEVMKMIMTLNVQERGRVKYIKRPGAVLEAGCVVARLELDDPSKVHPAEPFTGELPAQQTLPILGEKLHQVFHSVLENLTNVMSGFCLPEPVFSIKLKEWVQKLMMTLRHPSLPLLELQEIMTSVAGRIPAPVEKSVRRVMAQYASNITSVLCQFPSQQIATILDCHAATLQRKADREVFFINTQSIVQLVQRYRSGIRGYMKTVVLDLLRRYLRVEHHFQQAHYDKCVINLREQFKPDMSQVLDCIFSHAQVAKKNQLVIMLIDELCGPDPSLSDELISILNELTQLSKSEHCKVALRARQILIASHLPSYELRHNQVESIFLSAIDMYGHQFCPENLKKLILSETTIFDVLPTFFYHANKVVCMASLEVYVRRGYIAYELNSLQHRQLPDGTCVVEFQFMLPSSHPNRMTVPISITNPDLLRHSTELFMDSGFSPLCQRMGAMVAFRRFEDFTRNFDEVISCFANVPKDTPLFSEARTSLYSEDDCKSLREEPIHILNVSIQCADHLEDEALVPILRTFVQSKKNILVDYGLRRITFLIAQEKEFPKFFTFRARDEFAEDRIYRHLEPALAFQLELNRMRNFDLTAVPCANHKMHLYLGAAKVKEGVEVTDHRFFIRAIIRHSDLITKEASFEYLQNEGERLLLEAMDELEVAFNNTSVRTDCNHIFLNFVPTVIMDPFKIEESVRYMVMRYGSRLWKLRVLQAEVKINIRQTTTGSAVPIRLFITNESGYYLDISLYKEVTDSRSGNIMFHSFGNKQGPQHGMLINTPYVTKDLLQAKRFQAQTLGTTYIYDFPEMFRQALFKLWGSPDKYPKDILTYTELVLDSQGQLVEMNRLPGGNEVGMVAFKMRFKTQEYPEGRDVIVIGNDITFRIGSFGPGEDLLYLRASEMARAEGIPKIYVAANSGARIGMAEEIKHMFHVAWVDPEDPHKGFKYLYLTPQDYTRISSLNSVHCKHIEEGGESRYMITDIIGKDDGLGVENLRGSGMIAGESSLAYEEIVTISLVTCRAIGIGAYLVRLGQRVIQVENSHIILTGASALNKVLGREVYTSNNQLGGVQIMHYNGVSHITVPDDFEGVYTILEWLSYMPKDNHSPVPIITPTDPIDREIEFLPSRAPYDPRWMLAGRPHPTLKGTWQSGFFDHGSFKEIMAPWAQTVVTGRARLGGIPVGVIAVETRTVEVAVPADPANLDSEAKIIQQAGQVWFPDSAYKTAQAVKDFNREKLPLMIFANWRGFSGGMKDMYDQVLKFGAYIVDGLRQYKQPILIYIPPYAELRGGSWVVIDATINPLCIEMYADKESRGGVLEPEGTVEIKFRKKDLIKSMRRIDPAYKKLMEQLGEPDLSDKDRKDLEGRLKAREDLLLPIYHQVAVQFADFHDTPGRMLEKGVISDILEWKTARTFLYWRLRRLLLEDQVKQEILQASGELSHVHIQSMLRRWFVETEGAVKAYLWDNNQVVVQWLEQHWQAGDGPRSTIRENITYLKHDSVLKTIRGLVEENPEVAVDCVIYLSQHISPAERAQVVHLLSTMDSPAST
Chain of human serum albumin (HSA) (P02768 25-609): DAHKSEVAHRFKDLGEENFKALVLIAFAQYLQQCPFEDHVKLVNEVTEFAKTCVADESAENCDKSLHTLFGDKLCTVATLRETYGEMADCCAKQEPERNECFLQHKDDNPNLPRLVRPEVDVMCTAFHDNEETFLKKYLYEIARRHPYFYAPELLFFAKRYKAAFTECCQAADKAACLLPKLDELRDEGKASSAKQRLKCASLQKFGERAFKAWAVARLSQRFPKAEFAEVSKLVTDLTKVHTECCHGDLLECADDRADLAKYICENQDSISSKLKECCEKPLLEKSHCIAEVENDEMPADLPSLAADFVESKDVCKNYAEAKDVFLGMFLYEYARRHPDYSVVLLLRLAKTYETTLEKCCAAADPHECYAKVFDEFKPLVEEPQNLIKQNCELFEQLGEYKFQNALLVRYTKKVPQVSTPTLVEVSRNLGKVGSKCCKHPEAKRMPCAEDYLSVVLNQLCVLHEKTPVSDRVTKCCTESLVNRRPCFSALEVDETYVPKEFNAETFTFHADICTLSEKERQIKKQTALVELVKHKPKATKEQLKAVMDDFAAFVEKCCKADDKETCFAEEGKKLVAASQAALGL

For orientation: IC50 means the concentration that gives 50% inhibition. One may read the chromatographic logP as lipophilicity estimated from chromatographic retention. Read a low chromatographic logP as lower lipophilicity. As a reminder, the Kd is the equilibrium constant for the complex coming apart. Lower therefore signals tighter binding. Turning to `Cc1ccc(-c2ccc(Cl)c(F)c2)cc1C1=C(O)C2(CCC(F)(F)CC2)NC1=O` [Example 1-1, 3-(4′-Chloro-3′-fluoro-4-methylbiphenyl-3-yl)-8,8-difluoro-4-hydroxy-1-azaspiro[4.5]dec-3-en-2-one], the IC50 is 117 nM and 125 nM and 69 nM and 95 nM and 58 nM and 97 nM and 53 nM and 54 nM against human ACC1; 28 nM in the series with KM12; 39 nM in the series with PC3; 131 nM in the series with H460; 22 nM with MCF7; 3370 nM and 2110 nM and 2510 nM and 3740 nM and 957 nM and 1910 nM and 2780 nM and 3240 nM against human ACC2. The compound also came in with a chromatographic logP in series [1] of 1.9. Moreover, in series [2], the fraction unbound was 0.0184. The “effect (kill of caterpillars)” value in the series on Spodoptera frugiperda was 100%. Further, in the series on Myzus persicae, the pest or weed control at 500 g/ha worked out at 90%. The “effect (kill of beetle larvae)” value with Phaedon cochleariae was found to be 100%. For the same compound, in series [3], binding was put at a Kd of 3040 nM.
Turning to `Cc1ccc(-c2ccc(Cl)cc2)cc1C1=C(O)C2(CCC(F)(F)CC2)NC1=O` [Example 1-2, 3-(4′-Chloro-4-methylbiphenyl-3-yl)-8,8-difluoro-4-hydroxy-1-azaspiro[4.5]dec-3-en-2-one], the IC50 against human ACC1 is 68 nM and 80 nM and 99 nM and 109 nM and 72 nM and 65 nM and 135 nM and 153 nM; in the series with KM12, 58 nM; in the series on PC3, 50 nM; in the series on H460 it was 134 nM; in the series on MCF7, 30 nM; on human ACC2, 2350 nM and 2070 nM and 2450 nM and 2790 nM and 650 nM and 1280 nM and 1230 nM and 1740 nM. Further, the chromatographic logP in series [1] worked out at 1.73. The fraction unbound in [2] came out at 0.0349. The “effect (kill of caterpillars)” value in the series on Spodoptera frugiperda turned out to be 100%. Moreover, the pest or weed control at 500 g/ha in the series on Myzus persicae was found to be 100%. Further, in the series with Phaedon cochleariae, the “effect (kill of beetle larvae)” value is reported as 100%. Also, in series [3], binding was characterised by a dissociation constant (Kd) of 3860 nM.
